# Experimental data: ChEMBL document CHEMBL3045082, “Novel quinazolinone derivatives: synthesis and antimicrobial activity” (2013)
# Active and inactive are the calls of the source. The rule behind the calls is not given here.
# Key:
# [1] = test system: Aspergillus fumigatus; experiment: Antimicrobial activity against Aspergillus fumigatus assessed as growth inhibition after 24 to 48 hr by two-fold serial dilution method; format: functional
# [2] = test system: Streptococcus pyogenes; experiment: Antimicrobial activity against Streptococcus pyogenes ATCC 19615 assessed as diameter of growth inhibition zone at 1 mg/ml after 24 hr by agar diffusion method; format: functional; settings: ATCC 19615, 24 h, read-out: DIZ
# [3] = test system: Pseudomonas fluorescens; experiment: Antimicrobial activity against Pseudomonas fluorescens S 97 assessed as growth inhibition after 24 to 48 hr by two-fold serial dilution method; format: functional
# [4] = test system: Streptococcus pyogenes; experiment: Antimicrobial activity against Streptococcus pyogenes ATCC 19615 assessed as growth inhibition after 24 to 48 hr by two-fold serial dilution method relative to chloramphenicol; format: functional
# [5] = test system: Aspergillus fumigatus; experiment: Antimicrobial activity against Aspergillus fumigatus assessed as diameter of growth inhibition zone at 1 mg/ml by agar diffusion method; settings: read-out: DIZ
# [6] = test system: Pseudomonas savastanoi pv. phaseolicola; experiment: Antimicrobial activity against Pseudomonas syringae pv. phaseolicola GSPB 2828 assessed as growth inhibition after 24 to 48 hr by two-fold serial dilution method; format: functional
# [7] = test system: Streptococcus pyogenes; experiment: Antimicrobial activity against Streptococcus pyogenes ATCC 19615 assessed as growth inhibition after 24 to 48 hr by two-fold serial dilution method; format: functional
# [8] = test system: Staphylococcus aureus; experiment: Antimicrobial activity against Staphylococcus aureus ATCC 25923 assessed as growth inhibition after 24 to 48 hr by two-fold serial dilution method; format: functional
# [9] = test system: Staphylococcus aureus; experiment: Antimicrobial activity against Staphylococcus aureus ATCC 25923 assessed as diameter of growth inhibition zone at 1 mg/ml after 24 hr by agar diffusion method; format: functional; settings: ATCC 25923, 24 h, read-out: DIZ
# [10] = test system: Fusarium oxysporum; experiment: Antimicrobial activity against Fusarium oxysporum assessed as diameter of growth inhibition zone at 1 mg/ml […] by agar diffusion method; format: functional; settings: read-out: DIZ
# [11] = test system: Pseudomonas savastanoi pv. phaseolicola; experiment: Antimicrobial activity against Pseudomonas syringae pv. phaseolicola GSPB 2828 assessed as diameter of growth inhibition zone at 1 mg/ml after 24 hr by agar diffusion method; format: functional; settings: GSPB 2828, 24 h, read-out: DIZ
# [12] = test system: Pseudomonas fluorescens; experiment: Antimicrobial activity against Pseudomonas fluorescens S 97 assessed as diameter of growth inhibition zone at 1 mg/ml after 24 hr by agar diffusion method; format: functional; settings: S 97, 24 h, read-out: DIZ
# [13] = test system: Staphylococcus aureus; experiment: Antimicrobial activity against Staphylococcus aureus ATCC 25923 assessed as growth inhibition after 24 to 48 hr by two-fold serial dilution method relative to chloramphenicol; format: functional
# [14] = test system: Staphylococcus aureus; experiment: Antimicrobial activity against Staphylococcus aureus ATCC 25923 assessed as growth inhibition after 24 to 48 hr by two-fold serial dilution method relative to cephalothin; format: functional
# [15] = test system: Fusarium oxysporum; experiment: Antimicrobial activity against Fusarium oxysporum assessed as growth inhibition after 24 to 48 hr by two-fold serial dilution method; format: functional
SMILES,MIC [1],MIC [3],MIC [6] [µg/mL],MIC [7] [µg/mL],MIC [8] [µg/mL],MIC [15] [µg/mL],zone of inhibition at 1000 µg/mL [2] [mm],growth inhibition (GI) [4] [%],zone of inhibition at 1000 µg/mL [5] [mm],zone of inhibition at 1000 µg/mL [9] [mm],zone of inhibition at 1000 µg/mL [10] [mm],zone of inhibition at 1000 µg/mL [11] [mm],zone of inhibition at 1000 µg/mL [12] [mm],growth inhibition (GI) [13] [%],growth inhibition (GI) [14] [%]
Cc1ccc(S(=O)(=O)Oc2ccc(-c3nc4ccccc4c4nc5ccccc5n34)cc2)cc1,50 µg/mL,6.25 µg/mL,,25,25,,25,,20,26,16,14,37,,
Cc1ccc(S(=O)(=O)Oc2ccc(-c3nc4ccccc4c4nc(=O)[nH]n34)cc2)cc1,,,6.25,,,50,15,,15,15,19,38,15,,
Cc1ccc(S(=O)(=O)Oc2ccc(-c3nc4ccccc4c(=O)n3-n3c(C)nc4ccccc4c3=O)cc2)cc1,6.25 µg/mL,50 µg/mL,,,50,,15,,38,19,15,14,19,,
Cc1ccc(S(=O)(=O)Oc2ccc(-c3nc4ccccc4c(=O)n3-c3ccc(N)cc3)cc2)cc1,25 µg/mL,50 µg/mL,,,,6.25,15,,26,14,37,15,18,,
Cc1ccc(S(=O)(=O)Oc2ccc(C(=O)Nc3ccccc3-c3nc4ccccc4[nH]3)cc2)cc1,inactive,,50,25,25,,25,,,25,15,19,14,,
Cc1ccc(S(=O)(=O)Oc2ccc(C3=Nc4ccccc4C4=NCCN34)cc2)cc1,,50 µg/mL,25,6.25,25,,37,,14,25,15,26,19,,
C[C@@H]1C[C@@H]([C@H](O)CC2CC(=O)NC(=O)C2)C(=O)[C@@H](C)C1 [CYCLOHEXIMIDE],3.12 µg/mL,,,,,3.12,,,42,,43,,,,

# The next lines start with results.
MIC [1],MIC [3],MIC [6] [µg/mL],MIC [7] [µg/mL],MIC [8] [µg/mL],MIC [15] [µg/mL],SMILES,zone of inhibition at 1000 µg/mL [2] [mm],growth inhibition (GI) [4] [%],zone of inhibition at 1000 µg/mL [5] [mm],zone of inhibition at 1000 µg/mL [9] [mm],zone of inhibition at 1000 µg/mL [10] [mm],zone of inhibition at 1000 µg/mL [11] [mm],zone of inhibition at 1000 µg/mL [12] [mm],growth inhibition (GI) [13] [%],growth inhibition (GI) [14] [%]
12.5 µg/mL,inactive,50,6.25,3.12,,Cc1ccc(S(=O)(=O)Oc2ccc(-c3nc4ccccc4c(=O)n3-c3ccc(C4=NNC(c5ccccc5)C4)cc3)cc2)cc1 (centres undefined),38,50,31,43,14,19,,,
inactive,50 µg/mL,50,6.25,6.25,,Cc1ccc(S(=O)(=O)Oc2ccc(-c3nc4ccccc4c(=O)n3-c3nc4ccccc4s3)cc2)cc1,37,50,,38,14,19,20,50,
inactive,50 µg/mL,,6.25,12.5,50,Cc1ccc(S(=O)(=O)Oc2ccc(-c3nnnn3-c3ccccc3C(=O)O)cc2)cc1,38,,,32,19,14,20,25,50
,,50,,12.5,12.5,Cc1ccc(S(=O)(=O)Oc2ccc(-c3nc4ccccc4c(=O)n3C3=NNC(=O)C3/N=N/c3ccccc3)cc2)cc1 (centres undefined),14,,16,32,31,20,16,25,50
,50 µg/mL,,6.25,3.12,25,Cc1ccc(S(=O)(=O)Oc2ccc(-c3nc4ccccc4c4nc(=S)[nH]n34)cc2)cc1,37,,14,44,26,15,19,,
,6.25 µg/mL,6.25,6.25,6.25,,CC(=O)OCC1=C(C(=O)O)N2C(=O)[C@@H](NC(=O)Cc3cccs3)[C@H]2SC1 [CEPHALOTHIN],37,,,36,,38,37,,
50 µg/mL,,,6.25,6.25,,Cc1ccc(S(=O)(=O)Oc2ccc(-c3nc4ccccc4c(=O)n3-c3nccs3)cc2)cc1,38,50,19,38,15,14,16,50,
12.5 µg/mL,inactive,50,6.25,3.12,,Cc1ccc(C2CC(c3ccc(-n4c(-c5ccc(OS(=O)(=O)c6ccc(C)cc6)cc5)nc5ccccc5c4=O)cc3)=NN2)cc1 (centres undefined),38,50,31,43,14,19,,,
,6.25 µg/mL,6.25,3.12,3.12,,O=C(N[C@H](CO)[C@H](O)c1ccc([N+](=O)[O-])cc1)C(Cl)Cl [CHLORAMPHENICOL],44,,,42,,37,38,,
12.5 µg/mL,inactive,50,6.25,3.12,,COc1ccc(C2CC(c3ccc(-n4c(-c5ccc(OS(=O)(=O)c6ccc(C)cc6)cc5)nc5ccccc5c4=O)cc3)=NN2)cc1 (centres undefined),38,50,31,43,14,19,,,
